Reference: the supplement of paper PMC10307832

Experiments:
Assay in all cases: relative viability (nuclei count vs DMSO), 5 days (fraction); higher = more cells survive
Kobe2602 + Pictilisib = compound: C1=CC(=CC=C1NC(=S)NNC2=C(C=C(C=C2[N+](=O)[O-])C(F)(F)F)[N+](=O)[O-])F [Kobe2602] + CS(=O)(=O)N1CCN(Cc2cc3nc(-c4cccc5[nH]ncc45)nc(N4CCOCC4)c3s2)CC1 [Pictilisib] (partner 1 µM)
Procedure, shortened: (§1)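 Lung cancer cell lines, seeded in 1536-well plates, were treated the following day by pin tool with a single drug or with five library-drug doses (not always all listed) in √10 steps on top of a fixed anchor-drug dose. Cells were fixed and nuclei stained in one step after 5 days, and nuclei were counted. Relative viability is the nuclei count for treated wells divided by that for vehicle wells, reported as medians of duplicate plates.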

Cabozantinib + Lapatinib = compound: COc1cc2nccc(Oc3ccc(NC(=O)C4(C(=O)Nc5ccc(F)cc5)CC4)cc3)c2cc1OC [Cabozantinib] + CS(=O)(=O)CCNCc1ccc(-c2ccc3ncnc(Nc4ccc(OCc5cccc(F)c5)c(Cl)c4)c3c2)o1 [Lapatinib] (partner 2 µM)
Procedure, shortened: as §1

Zosuquidar + Navitoclax = compound: O[C@@H](COc1cccc2ncccc12)CN1CCN([C@@H]2c3ccccc3[C@@H]3[C@H](c4ccccc42)C3(F)F)CC1 [Zosuquidar] + CC1(C)CCC(c2ccc(Cl)cc2)=C(CN2CCN(c3ccc(C(=O)NS(=O)(=O)c4ccc(N[C@H](CCN5CCOCC5)CSc5ccccc5)c(S(=O)(=O)C(F)(F)F)c4)cc3)CC2)C1 [Navitoclax] (partner 0.5 µM)
Procedure, shortened: as §1

Zosuquidar + Linsitinib = compound: O[C@@H](COc1cccc2ncccc12)CN1CCN([C@@H]2c3ccccc3[C@@H]3[C@H](c4ccccc42)C3(F)F)CC1 [Zosuquidar] + C[C@]1(O)C[C@@H](c2nc(-c3ccc4ccc(-c5ccccc5)nc4c3)c3c(N)nccn32)C1 [Linsitinib] (partner 1 µM)
Procedure, shortened: as §1

Row | Cell Line | relative viability (Kobe2602 + Pictilisib; first compound 0.2 µM) | relative viability (Kobe2602 + Pictilisib; first compound 0.6325 µM) | relative viability (Kobe2602 + Pictilisib; first compound 2 µM) | relative viability (Kobe2602 + Pictilisib; first compound 6.325 µM) | relative viability (Kobe2602 + Pictilisib; first compound 20 µM) | relative viability (Cabozantinib + Lapatinib; first compound 0.02 µM) | relative viability (Cabozantinib + Lapatinib; first compound 0.06325 µM) | relative viability (Cabozantinib + Lapatinib; first compound 0.2 µM) | relative viability (Cabozantinib + Lapatinib; first compound 0.6325 µM) | relative viability (Cabozantinib + Lapatinib; first compound 2 µM) | relative viability (Zosuquidar + Navitoclax; first compound 0.01 µM) | relative viability (Zosuquidar + Navitoclax; first compound 0.03162 µM) | relative viability (Zosuquidar + Navitoclax; first compound 0.1 µM) | relative viability (Zosuquidar + Navitoclax; first compound 0.3162 µM) | relative viability (Zosuquidar + Navitoclax; first compound 1 µM) | relative viability (Zosuquidar + Linsitinib; first compound 0.01 µM) | relative viability (Zosuquidar + Linsitinib; first compound 0.03162 µM) | relative viability (Zosuquidar + Linsitinib; first compound 0.1 µM) | relative viability (Zosuquidar + Linsitinib; first compound 0.3162 µM) | relative viability (Zosuquidar + Linsitinib; first compound 1 µM)
1 | NCI-H1395 | 0.612 | 0.664 | 0.617 | 0.65 | 0.816 | 0.913 | 1.03 | 0.948 | 1.1 | 0.905 | 1.11 | 1.08 | 1.12 | 1.28 | 1.15 | 1.39 | 1.17 | 0.796 | 1.04 | 1.1
2 | NCI-H1651 | 0.691 | 0.69 | 0.636 | 0.537 | 0.537 | 0.812 | 0.794 | 0.71 | 0.786 | 0.754 | 0.949 | 0.987 | 1.05 | 0.977 | 1.01 | 0.937 | 1.01 | 0.895 | 0.939 | 0.953
3 | IA-LM | 0.369 | 0.306 | 0.338 | 0.318 | 0.317 | 0.92 | 0.91 | 1.02 | 0.946 | 0.808 | 0.803 | 0.83 | 1.02 | 0.848 | 0.753 | 0.671 | 0.766 | 0.334 | 0.654 | 0.624
4 | NCI-H1734 | 0.439 | 0.475 | 0.464 | 0.454 | 0.533 | 0.98 | 1.09 | 0.984 | 1.08 | 1.01 | 0.922 | 0.925 | 0.754 | 0.862 | 0.787 | 0.894 | 0.97 | 0.816 | 0.963 | 0.949
5 | NCI-H520 | 0.253 | 0.364 | 0.255 | 0.225 | 0.292 | 1.08 | 0.924 | 0.72 | 0.973 | 0.566 | 1.16 | 1.15 | 0.986 | 1.03 | 1.02 | 0.984 | 0.945 | 0.888 | 0.946 | 1.08
6 | PC-14 | 0.63 | 0.674 | 0.592 | 0.637 | 0.745 | 0.27 | 0.3 | – | 0.273 | 0.27 | 1.05 | 0.988 | 0.983 | 0.934 | 0.959 | 0.918 | 0.97 | 0.904 | 0.94 | 1.02
7 | NCI-H2347 | 0.745 | 0.843 | 0.716 | 0.558 | 0.611 | 0.883 | 0.951 | 1.03 | 0.824 | 0.925 | 0.891 | 0.686 | 0.583 | 0.931 | 0.944 | 0.968 | 1 | 0.834 | 1.01 | 1.06
8 | NCI-H1793 | 0.387 | 0.381 | 0.32 | 0.346 | 0.339 | 0.95 | 1.15 | 0.571 | 0.508 | 0.594 | 0.407 | 0.444 | – | 0.499 | 0.396 | 0.748 | 0.934 | – | 0.797 | 0.73
9 | NCI-H596 | 0.222 | 0.432 | 0.395 | 0.403 | 0.422 | 1.17 | 1.21 | 0.956 | 1.05 | 1.02 | 1.04 | 1.05 | 0.861 | 0.982 | 0.972 | 1.03 | 1.09 | 1.03 | 1.05 | 1.03
